Reference: US4699909A, “Benzotriazolyl-4,5-dihydro-3(2H)-pyridazinones” (Dr. Karl Thomae GmbH, priority 1981, dated 1987)

Assays:
thrombocyte aggregation = assay: Thrombocyte aggregation according to Born and Cross (collagen-induced, platelet-rich plasma); assay type: cell-based; details: platelet-rich plasma from healthy human test subjects; aggregation initiated by collagen
Description: Determination of the thrombocyte aggregation according to Born and Cross [J. Physiol. 170, 397 (1964)]
The thrombocyte aggregation was determined in platelet-rich plasma from healthy human test subjects. The course of decrease in optical density after the administration of standard commercial collagen (made by the Sigma Co., St. Louis, Mo.) containing 1 mg of collagen fibrils per ml was measured photometrically and recorded. The rate of aggregation (Vmax) was deduced from the angle of inclination of the density curve. The point on the curve where there was most light transmittance was used to calculate the optical density (O.D.). To initiate maximum aggregation, about 0.01 ml of the collagen solution was added to 1 ml of platelet-rich plasma.

anesthetized cat = assay: Hypotensive and positive inotropic activity in the anesthetized cat; assay type: in vivo; details: average; for Change in blood pressure (first value of the printed pair) / Change in blood pressure (second value of the printed pair): arterial pressure, aorta abdominalis; for Change in blood pressure (first value of the printed pair): first number before the slash; for Change in blood pressure (second value of the printed pair): second number after the slash; for Increase in dp/dt: left ventricle pressure, dp/dtmax
Description: Determination of hypotensive and positive inotropic activity in the anesthetized cat
The tests were carried out on cats which had been anesthetized with sodium pentobarbital (40 mg/kg i.p.). The animals breathed spontaneously. The arterial blood pressure was measured in the aorta abdominalis using a Statham pressure transducer (P 23 Dc). To determine the positive inotropic effect, the pressure in the left ventricle of the heart was measured using a catheter-tip manometer (Milliar PC-350 A). From this, the contractility parameter (dp/dtmax was obtained by means of an analog differentiator.
The test compounds were injected into a vena femoralis. Physiological saline solution or Polydiol 200 was used as the solvent. Each compound was tested on at least 3 cats in a dosage of 0.1 or 2.0 mg/kg i.v. The duration of activity of the test compounds was at least 45 minutes in each case.

Acute toxicity = details: in vivo, po; peroral, mouse
Description: In therapeutic doses the test substances are non-toxic. For example, compound B has a peroral LD50 of >50 mg/kg in the mouse.

Row | Structure (SMILES) | EC50 (thrombocyte aggregation) [nM] | Change in blood pressure (first value of the printed pair) (anesthetized cat; 0.1 mg/kg i.v.) [mm Hg] | Change in blood pressure (second value of the printed pair) (anesthetized cat; 0.1 mg/kg i.v.) [mm Hg] | Increase in dp/dt (anesthetized cat; 0.1 mg/kg i.v.) | LD50 (Acute toxicity) [mg/kg] | Change in blood pressure (first value of the printed pair) (anesthetized cat; 2.0 mg/kg i.v.) [mm Hg] | Change in blood pressure (second value of the printed pair) (anesthetized cat; 2.0 mg/kg i.v.) [mm Hg] | Increase in dp/dt (anesthetized cat; 2.0 mg/kg i.v.)
1 | CCn1nnc2cc(C3=NNC(=O)CC3C)ccc21 (stereo not shown) [D, 5-Methyl-6-(1'-ethyl-benzotriazol-5'-yl)-4,5-dihydro-3(2H)-pyridazinone] | 41 | -30 | -32 | +125% |  |  |  | 
2 | CC1CC(=O)NN=C1c1ccc2c(c1)nnn2C (stereo not shown) [G, 5-Methyl-6-(1'-methyl-benzotriazol-5'-yl)-4,5-dihydro-3(2H)-pyridazinone] | 51 | -33 | -38 | +168% |  |  |  | 
3 | CC1CC(=O)NN=C1c1ccc2c(c1)nnn2C(=O)C1CCCCC1 (stereo not shown) [B, 5-Methyl-6-(1'-cyclohexanoyl-benzotriazol-5'-yl)-4,5-dihydro-3(2H)-pyridazinone] | 280 |  |  |  | > 50 | -60 | -37 | +154%
4 | CC1CC(=O)NN=C1c1ccc2c(c1)nnn2C(C)C (stereo not shown) [C, 5-Methyl-6-(1'-isopropyl-benzotriazol-5'-yl)-4,5-dihydro-3(2H)-pyridazinone] | 33 | -27 | -33 | +116% |  |  |  | 
5 | COc1ccc(C(=O)n2nnc3cc(C4=NNC(=O)CC4C)ccc32)cc1 (stereo not shown) [A, 5-Methyl-6-(1'-p-methoxybenzoyl-benzotriazol-5'-yl)-4,5-dihydro-3(2H)-pyridazinone] | 270 | -16 | -16 | +105% |  |  |  | 
6 | COc1ccc(Cn2nnc3cc(C4=NNC(=O)CC4C)ccc32)cc1 (stereo not shown) [Compound E, 5-Methyl-6-(1'-p-methoxybenzyl-benzotriazol-5'-yl)-4,5-dihydro-3(2H)-pyridazinone] |  | -48 | -48 | +167% |  |  |  | 
7 | CC1CC(=O)NN=C1c1ccc2c(c1)nnn2CCN(C)C (stereo not shown) [F, 5-Methyl-6-[1'-(2-dimethylaminoethyl)-benzotriazol-5'-yl]-4,5-dihydro-3(2H)-pyridazinone] | 300 |  |  |  |  |  |  | 
